Values of other authors, collected in patent publication US20120316134A1, “ANAESTHETIC COMPOSITION” (JUROX PTY. LTD., priority 2000, published 2012).

Conditions: in vivo

CC(=O)OCC(=O)[C@H]1CC[C@H]2[C@@H]3CC[C@H]4C[C@H](O)CC[C@]4(C)[C@H]3C(=O)C[C@]12C [alfadolone acetate, 21-acetoxy-3 α-hydroxy-5α-pregnane-11,20-dione]
Anaesthetic potency relative to alfaxalone: half as potent
